Assay results published in the supplement of paper PMC3621838.
± gives the standard deviation of the averaged measurements.

Tested on: HEK293 NF-kB-luciferase reporter cells
Assay: NF-kB luciferase reporter activity, robust Z-score vs plate median (robust Z-score (log luminescence)); higher = stronger NF-kB reporter activation
Details: TNF treatment time 8.5 h, transfection time 72 h
Experimental: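 Primary screen of an Ambion Pre-miR miRNA mimic library (miRBase v8.0, 1.6 pmol/well, 384-well, duplicate) reverse-transfected into HEK293 cells stably expressing a 5x NF-kB firefly luciferase reporter. After 72 h the cells were treated with vehicle or TNF (40 ng/mL) for 8.5 h and luminescence was read (BriteLite). Raw luminescence was log-transformed and converted to a robust Z-score per plate: (x - plate median)/plate MAD. Sequence given is the mature miRNA strand of the double-stranded mimic.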

Sequence | NF-kB luciferase reporter activity (TNF 0 ng/mL) | NF-kB luciferase reporter activity (TNF 40 ng/mL)
AAAAGCUGGGUUGAGAGGGCGAA | -0.418 ± 0.33 | -0.74 ± 0.12
AAAAUGGUUCCCUUUAGAGUGUU | -1.7 ± 0.2 | -2.14 ± 0.057
AAACAAACAUGGUGCACUUCUUU | -1.38 ± 0.64 | -0.235 ± 0.099
AAACCGUUACCAUUACUGAGUUU | 1.13 ± 0.58 | 0.947 ± 0.054
AAAGCGCUUCCCUUCAGAGUGU | 0.00327 ± 0.13 | 0.467 ± 0.04
AAAGCGCUUCCCUUUGCUGGA | -0.603 ± 0.07 | 0.608 ± 0.072
AAAGCGCUUCUCUUUAGAGGA | -0.221 ± 1.4 | 0.82217 ± 0.00059
AAAGUGCAUCCUUUUAGAGGUUU | -0.831 ± 1 | -0.425 ± 0.04
AAAGUGCAUCCUUUUAGAGUGUUAC | -1.8 ± 0.56 | -0.116 ± 0.027
AAAGUGCAUCUUUUUAGAGGAU | -0.977 ± 0.6 | -0.416 ± 0.079
AAAGUGCCUCCUUUUAGAGUGU | -1.14 ± 0.07 | -0.561 ± 0.048
AAAGUGCUGCGACAUUUGAGCGU | -0.434 ± 0.93 | -1.06 ± 0.19
AAAGUGCUUCCCUUUGGACUGU | -1.29 ± 0.15 | -0.57 ± 0.16
AAAGUGCUUCCUUUUAGAGGC | -1.48 ± 0.11 | -0.83 ± 0.031
AAAGUGCUUCCUUUUAGAGGG | -1.32 ± 0.33 | -0.578 ± 0.11
AAAGUGCUUCCUUUUAGAGGGUU | -1.51 ± 0.46 | -0.653 ± 0.033
AAAGUGCUUCCUUUUUGAGGG | -1.7 ± 0.2 | -0.497 ± 0.23
AAAGUGCUUCUCUUUGGUGGGUU | -1.14 ± 0.07 | -0.144 ± 0.11
AACACACCUGGUUAACCUCUUU | -1.14 ± 0.07 | 0.254 ± 0.15
AACAUUCAUUGUUGUCGGUGGGUU | 0.371 ± 0.31 | -0.631 ± 0.082
AACGCACUUCCCUUUAGAGUGU | 0.317 ± 0.45 | 0.826 ± 0.073
AACGCGCUUCCCUAUAGAGGG | -0.412 ± 0.44 | 0.629 ± 0.15

Sequence | NF-kB luciferase reporter activity (TNF 0 ng/mL) | NF-kB luciferase reporter activity (TNF 40 ng/mL)
AACUGGCCCUCAAAGUCCCGCUUU | 1.11 ± 0.46 | -0.934 ± 0.19
AACUGGCCUACAAAGUCCCAG | 0.721 ± 0.19 | -1.18 ± 0.17
AAGUGCUGUCAUAGCUGAGGUC | -0.706 ± 0.31 | -0.185 ± 0.21
AAGUGCUUCCUUUUAGAGGGUU | -1.7 ± 0.2 | -1.29 ± 0.042
AAUAAUACAUGGUUGAUCUUU | -0.785 ± 0.09 | 0.0536 ± 0.043
AAUAUAACACAGAUGGCCUGU | 0.148 ± 0.35 | 0.874 ± 0.29
AAUCAUACACGGUUGACCUAUU | 0 | -0.0786 ± 0.0065
AAUCAUACAGGGACAUCCAGUU | -0.326 ± 0.46 | 0.117 ± 0.12
AAUCCUUGGAACCUAGGUGUGAGU | 0.598 ± 0.14 | 0.0708 ± 0.057
AAUCCUUUGUCCCUGGGUGAGA | 0.375 ± 0.22 | 0.638 ± 0.062
AAUCGUACAGGGUCAUCCACUU | -0.187 ± 0.52 | 0.638 ± 0.17
AAUUGCACUUUAGCAAUGGUGA | 0.232 ± 0.073 | -0.707 ± 0.14
ACAAAGUGCUUCCCUUUAGAGU | -1.29 ± 0.15 | -0.471 ± 0.097
ACAAAGUGCUUCCCUUUAGAGUGU | -0.845 ± 0.78 | -0.799 ± 0.018
ACAUAGAGGAAAUUCCACGUUU | 0.113 ± 0.85 | -0.459 ± 0.0079
ACUAGACUGAAGCUCCUUGAGG | -0.0115 ± 0.13 | 0.7434 ± 0.0017
ACUCAAAAUGGGGGCGCUUUCC | -0.706 ± 0.31 | 0.907 ± 0.14
ACUGCCCUAAGUGCUCCUUCU | 2.18 ± 0.41 | 0.608 ± 0.041
ACUUCACCUGGUCCACUAGCCGU | 0.123 ± 0.3 | 0.86 ± 0.097
ACUUUAACAUGGAAGUGCUUUCU | -0.37 ± 0.4 | 0.272 ± 0.026
AGACCCUGGUCUGCACUCUAU | 0.885 ± 0.42 | 0.7 ± 0.065
AGAGGCUGGCCGUGAUGAAUUC | 0.912 ± 0.72 | -1.96 ± 0.079
